Measured values as given in US6749840B2, “Inhibition of pigmentation by inhibition of fatty acid synthase” (New York University, priority 2001, dated 2004).

Tested on: Melan-a melanocytes
Experiment: Assay for melanin production in melan-a melanocytes (absorbance of melanin at 490 nm per protein)
Format: cell-based, mice
Conditions: at 3 μM; average; results of FIG. 1
Method: Melan-a melanocytes (α/α, P/P), an immortalized melanocyte line derived from C57BLI6J mice wild type at the p locus (Bennett et al. (1987), Int. J. Cancer 39:414-418), were incubated in Dulbecco's modification of Eagle's medium (DMEM: 10% fetal calf serum, 2 mM L-glutamine, 1 mM sodium pyruvate, 1% MEM non-essential amino acids 100×, […]). Immediately before using the medium, tetradecanoyl phorbol acetate (TPA) was added at 200 nM. Cells were seeded in T-25 flasks with 4×10^4 cells/ml×4.5 ml/flask (10-20% confluent) and were grown at 37° C. with 5% CO2. Twenty-four hours later, a compound to be tested (diluted in 0.5 ml media) was added to the media. Forty-eight hours after the addition of drug, both the media and drug were changed. Cells were harvested after an additional 48 or 72 hours (100% confluent). In harvesting the cells, the reagents and cells were kept at 4° C. Briefly, the media was removed from the cells, and one milliliter of media was reserved if needed for the tyrosinase assay. The cells were then rinsed with approximately 500 μl cold 1×phosphate buffered saline (PBS) until the PBS rinse was clear. […] 2 N NaOH in 20% DMSO was used as a blank, and the samples were read at a wavelength of 490 nm. The data were reported as absorbance of melanin per protein calculated for the total sample. […]

SMILES: C/C=C/C/C=C/CCC(=O)[C@H]1O[C@H]1C(N)=O [cerulenin, [2R,3S]-2,3-epoxy-4-oxo-7,10-trans, trans-dodecanoic acid amide]
- decrease of pigmentation in melan-a melanocytes: 50%
